{
  "source": "ChEMBL document CHEMBL5370631",
  "about": "“Emopamil-Binding Protein Inhibitors for Treating Multiple Sclerosis” (ACS Med Chem Lett, 2023)",
  "data": [
    {"target": "3-beta-hydroxysteroid-Delta(8),Delta(7)-isomerase (Homo sapiens, UniProt Q15125)", "sequence (Q15125 whole entry)": "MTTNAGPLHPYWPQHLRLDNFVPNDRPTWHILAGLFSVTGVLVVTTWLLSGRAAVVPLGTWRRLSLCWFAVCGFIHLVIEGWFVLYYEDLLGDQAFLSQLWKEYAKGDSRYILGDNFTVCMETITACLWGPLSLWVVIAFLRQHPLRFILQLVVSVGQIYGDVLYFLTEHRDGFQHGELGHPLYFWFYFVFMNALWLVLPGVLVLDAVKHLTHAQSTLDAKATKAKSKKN", "experiment": "Inhibition of human EBP isolated from HEK293T cells assessed as reduction in dihydrolathosterol-d5 formation using zymosterol-d5 as substrate pre incubated for 30 mins followed by substrate addition and incubated at 37 degC for 4 hrs by LC-APCI MRM MS analysis", "type": "cell-free, HEK-293T", "units": {"IC50": "nM"}, "values": [
      {"smiles": "Cc1cc(S(=O)(=O)N2[C@@H]3CC[C@H]2C[C@@H](CN2CCOCC2)C3)n(C)n1", "IC50": "< 50"},
      {"smiles": "O=S(=O)(c1ccc(OC(F)F)cc1)N1[C@@H]2CC[C@H]1C[C@@H](NCC1(O)CCOCC1)C2", "IC50": "< 50"},
      {"smiles": "O=S(=O)(c1ccc(OC(F)F)cc1)N1C2CCC1CC(NCC1CCOCC1)C2", "note": "(stereo unspecified)", "IC50": "< 50"},
      {"smiles": "CC1CCN([C@H]2C[C@H]3CC[C@@H](C2)N3S(=O)(=O)c2ccc(OC(F)F)cc2)CC1", "IC50": "< 50"},
      {"smiles": "O=S(=O)(c1ccc(OC(F)F)cc1)N1C2CCC1CC(NC1CCOCC1)C2", "note": "(stereo unspecified)", "IC50": "< 50"},
      {"smiles": "CC12CC(NC3CC4CCC(C3)N4S(=O)(=O)c3ccc(OC(F)F)cc3)(CO1)C2", "note": "(stereo unspecified)", "IC50": "< 50"}
    ]}
  ]
}
